Legend:
16HBE14o- cells = assay: In vitro transfection with LPD/LD complexes, luciferase reporter (pCI-Luc); assay type: cell-based, human; conditions: complexed to peptide E, p<0.05
Procedure: (§1) Cells were seeded into 96-well plates at 2.5×10^3 cells per well for bEND.3 cells and at 2×10^4 cells per well for all the other cells, then incubated overnight at 37° C. in complete growth medium. The following day, lipopolyplex (LPD) formulations were prepared essentially as described previously (Hart et al., 1998), by mixing the components in the following order: 50 μl of lipid (L) at 80 μg/ml in OptiMEM, 70 μl of peptide (P) at 110 μg/ml in OptiMEM and 50 μl of plasmid pCI-Luc (D) at 40 μg/ml in OptiMEM corresponding to a weight ratio of 2:4:1, respectively. […] The cells were incubated with the complexes for 4 h at 37° C. before replacing with fresh media for 24 h, after which reporter gene expression was analysed by luciferase assay (Promega, Madison, Wis., USA). […]
(§2) Cells were washed once with PBS before the addition of 20 μl of 1× Reporter Lysis Buffer (Promega, Madison, Wis., USA) to the cells for 20 min at 4° C. before freezing at −80° C. for at least 30 min, followed by thawing at room temperature. Then the luciferase activity was measured during 10 seconds using the Luciferase Assay System (Promega, Madison, Wis., USA) and a Lucy-1 Luminometer (Anthos Ltd., Salzburg, Austria). […] In vitro luciferase activity was expressed as Relative Light Units (RLU) per milligram of protein (RLU/mg).

ΣCFTE29o- cells = assay: as above; assay type: cell-based, human; conditions: complexed to peptide E, p<0.05
Procedure: as §1, §2

[1] = test system: Neuro 2A, AJ3.1, bEND.3, 16HBE14o-, ΣCFTE29o- cells and primary PVSMCs; assay: In vitro transfection, luciferase reporter, statements covering several or all cell types studied; assay type: cell-based; conditions: for transfection efficiency, rank among PEG-acetal pH-sensitive lipids: all the cells, lipid/DOPE complexed to peptide 6 or E and pCI-Luc 2:4:1; for transfection efficiency of cleavable (RVRR) peptide compared with equivalent non-cleavable peptide control: Neuro 2A, bEND.3 and 16HBE14o- cells, stated for 'most' of the peptides, controls P1, P6, FMM12, PE, PY
Procedure: (§3) Cells were seeded into 96-well plates at 2.5×10^3 cells per well for bEND.3 cells and at 2×10^4 cells per well for all the other cells, then incubated overnight at 37° C. in complete growth medium. The following day, lipopolyplex (LPD) formulations were prepared essentially as described previously (Hart et al., 1998), by mixing the components in the following order: 50 μl of lipid (L) at 80 μg/ml in OptiMEM, 70 μl of peptide (P) at 110 μg/ml in OptiMEM and 50 μl of plasmid pCI-Luc (D) at 40 μg/ml in OptiMEM corresponding to a weight ratio of 2:4:1, respectively. All the complexes were mixed by pipetting briefly, kept for 1 h at room temperature and then diluted in OptiMEM to a final volume of 1.57 ml. Two hundred microliters of complexes corresponding at 0.25 μg of plasmid DNA were added to each culture well after removal of the complete growth medium. All the transfections were carried out in 6 wells each. A centrifugation (1500 rpm, during 5 minutes) could be performed to promote the complex sedimentation and cell contact. The cells were incubated with the complexes for 4 h at 37° C. before replacing with fresh media for 24 h, after which reporter gene expression was analysed by luciferase assay (Promega, Madison, Wis., USA). For bEND.3 cells, 5 mM sodium butyrate was added to the transfection medium and to the fresh media to achieve optimal expression levels.
(§4) Cells were washed once with PBS before the addition of 20 μl of 1× Reporter Lysis Buffer (Promega, Madison, Wis., USA) to the cells for 20 min at 4° C. before freezing at −80° C. for at least 30 min, followed by thawing at room temperature. Then the luciferase activity was measured during 10 seconds using the Luciferase Assay System (Promega, Madison, Wis., USA) and a Lucy-1 Luminometer (Anthos Ltd., Salzburg, Austria). The amount of protein present in each transfection lysate was determined with the Bio-Rad (Hercules, Calif., USA) protein assay reagent by the manufacturer's instructions, adding 20 μl from the luciferase test to 180 μl of the reagent diluted 1 in 5 and incubating at room temperature for 10 min before comparing the OD590 to a range of BSA standards. In vitro luciferase activity was expressed as Relative Light Units (RLU) per milligram of protein (RLU/mg).

[2] = Hydrolysis studies of PEG-acetal cleavable lipids; assay type: physicochemical; conditions: pH at which hydrolysis was observed; 37° C., pH range 3 to 7; TLC, confirmed by mass spectrometry
Procedure: Hydrolysis of the PEG-acetal lipids was investigated at 37° C. over a pH range of 3 to 7.
Acid hydrolysis of the compounds was monitored by TLC, and cleavage was then confirmed by mass spectrometry. An example of the TLC analysis method used for compound JBW389 is shown FIG. 4 with a control (the cleaved acetal product, the corresponding aldehyde) and the pH at which hydrolysis for all of the compounds prepared was observed is given in Table II.

bEND.3 cells = assay: In vitro transfection with LPD/LD complexes, luciferase reporter (pCI-Luc); assay type: cell-based, mouse; conditions: complexed to peptide E, p<0.05
Procedure: as §3, with “For bEND.3 cells, 5 mM sodium butyrate was added to the transfection medium and to the fresh media to achieve optimal expression levels.” left out
as §4, with “In vitro luciferase activity was expressed as Relative Light Units (RLU) per milligram of protein (RLU/mg).” left out

[3] = test system: primary porcine vascular smooth muscle cells (PVSMCs); assay: as above; assay type: cell-based; conditions: complexed to peptide E, p<0.05
Procedure: as §1, §2

Neuro 2A cells = assay: as above; assay type: cell-based, mouse
Procedure: as §3, with “For bEND.3 cells, 5 mM sodium butyrate was added to the transfection medium and to the fresh media to achieve optimal expression levels.” left out
as §4, with “In vitro luciferase activity was expressed as Relative Light Units (RLU) per milligram of protein (RLU/mg).” left out

[4] = test system: female A/J mice bearing a tumour (Neuro 2A); assay: In vivo transfection, i.v., luciferase expression in tumours and organs; parameters: species or system mouse; conditions: peptide complexed to lipid ME42/DOPE and pCI-Luc, 24 hours, p>0.05
Procedure: All animal procedures were approved and licensed by the Home Office and performed to the standards required by the UK Co-ordinating Committee on Cancer Research (UKCCCR) (Workman et al., British Journal of Cancer, 1998, 77, 1-10). Female A/J mice (Harlan Laboratories, U.K) of 8-12 weeks old were injected subcutaneously in the right posterior flank with 1.5×10^6 Neuro 2A cells. After 10±2 days, when tumors had reached approximately 8-12 mm in size, 100 μl of LPD complexes made in 5% glucose and containing 50 ug pCI-Luc or pAB 11 were injected into the tail vein. Experiments were carried out at least six times. Twenty-four hours after injection, mice were killed and tumours and organs were resected and stored at −80° C. Tissues were defrosted in ice, submersed in reporter gene assay lysis buffer (Roche, Germany), homogenized with an IKA homogenizer (IKA, Staufen, Germany) and centrifuged at 4600 rpm during 10 min at 4° C. The supernatant was got back and centrifuged at 13000 rpm during 10 min at 4° C. Luciferase activity in the tissue lysates was measured using a FLUOstar Optima (BMG Labtech, UK) during 30 seconds and was expressed as RLU per milligram of protein (RLU/mg). Two million RLU/30 sec correspond to 1 ng luciferase.

[5] = lipofectin:peptide:pCI-Luc 2:4:1

CCCCCCCC/C=C\CCCCCCCCOCC(C[N+](C)(C)CCCC(OCCOCCO)OCCOCCO)OCCCCCCCC/C=C\CCCCCCCC (centres unmarked) [JBW389, N-(2,3-Bis((Z)-octadec-9-enyloxy)propyl)-4,4-bis(2-(2-hydroxyethoxy)ethoxy)-N,N-dimethylbutan-1-aminium chloride]
transfection efficiency relative to non-cleavable lipid JBW456 (16HBE14o- cells): 6 times | transfection efficiency relative to non-cleavable lipid JBW456 (ΣCFTE29o- cells): 2 times | transfection efficiency, rank among PEG-acetal pH-sensitive lipids [1]: the best lipids for transfection | Hydrolysis pH [2]: 5.5

CCCCCCCC/C=C\CCCCCCCCOCC(C[N+](C)(C)CCCCCCCC(OCCOCCO)OCCOCCO)OCCCCCCCC/C=C\CCCCCCCC (centres unmarked) [JBW400, N-(2,3-bis((Z)-octadec-9-enyloxy)propyl)-8,8-bis(2-(2-hydroxyethoxy)ethoxy)-N,N-dimethyloctan-1-aminium chloride]
transfection efficiency relative to non-cleavable lipid JBW456 (bEND.3 cells): 2 times | transfection efficiency relative to non-cleavable lipid JBW456 [3]: 4 times | transfection efficiency, rank among PEG-acetal pH-sensitive lipids [1]: the best lipids for transfection | Hydrolysis pH [2]: 4.0

CCCCCCCC/C=C\CCCCCCCCOCC(C[N+](C)(C)CCCCCC(OCCOCCO)OCCOCCO)OCCCCCCCC/C=C\CCCCCCCC (centres unmarked) [JBW411, N-(2,3-bis((Z)-octadec-9-enyloxy)propyl)-6,6-bis(2-(2-hydroxyethoxy)ethoxy)-N,N-dimethylhexan-1-aminium chloride]
transfection efficiency, rank among PEG-acetal pH-sensitive lipids [1]: less efficient | Hydrolysis pH [2]: 3.5

CCCCCCCC/C=C\CCCCCCCCOCC(C[N+](C)(C)CCCCCC(OCCOCCOCCOCCO)OCCOCCOCCOCCO)OCCCCCCCC/C=C\CCCCCCCC (centres unmarked) [JBW412]
transfection efficiency, rank among PEG-acetal pH-sensitive lipids [1]: less efficient | Hydrolysis pH [2]: 3.0

CCCCCCCC/C=C\CCCCCCCCOCC(C[N+](C)(C)CCCCCC(OCCOCCOC)OCCOCCOC)OCCCCCCCC/C=C\CCCCCCCC (centres unmarked) [JBW413, N-(2,3-Bis((Z)-octadec-9-enyloxy)propyl)-6,6-bis(2-(2-methoxyethoxy)ethoxy)-N,N-dimethylhexan-1-aminium chloride]
transfection efficiency compared with non-cleavable lipid JBW456 (Neuro 2A cells; complexed to peptide E, p>0.05): as efficient as JBW456 | transfection efficiency, rank among PEG-acetal pH-sensitive lipids [1]: the best lipids for transfection | Hydrolysis pH [2]: 5.0

CCCC/C=C\CCCCCCCCCCOCC(C[N+](C)(C)CCCCCC(OCCOCCO)OCCOCCO)OCCCCCCCCCC/C=C\CCCC (centres unmarked) [JBW418, N-(2,3-Bis((Z)-hexadec-11-enyloxy)propyl)-6,6-bis(2-(2-hydroxyethoxy)ethoxy)-N,N-dimethylhexan-1-aminium chloride]
transfection efficiency, rank among PEG-acetal pH-sensitive lipids [1]: less efficient | Hydrolysis pH [2]: 3.0

(K)16RVRRGACRGDCLG [ME27]
transfection efficiency compared with non-cleavable peptide ME61 (Neuro 2A cells; [5]): as efficient as the non-cleavable control peptide ME61 | transfection efficiency of cleavable (RVRR) peptide compared with equivalent non-cleavable peptide control [1, 5]: as or more efficient | transfection efficiency, rank among cleavable peptides ME27, ME28, ME29 ([1]; lipofectin:peptide:pCI-Luc 2:4:1, each of Neuro 2A, AJ3.1, bEND.3, 16HBE14o-, ΣCFTE29o-, PVSMCs, p<0.05): significantly the best cleavable peptide | transfection efficiency compared with non-cleavable peptide ME61 ([1]; lipofectin:peptide:pCI-Luc 2:4:1, other cell lines than Neuro 2A, p<0.05): significantly more efficient than ME61 | luciferase expression in tumour, by peptide [4]: 105000 RLU/mg

(K)16RVRRGACRGDMFGCA [ME68]
transfection efficiency of cleavable (RVRR) peptide compared with equivalent non-cleavable peptide control [1, 5]: as or more efficient

(K)16RVRRGACRRETAWACG [FMM8]
transfection efficiency of cleavable (RVRR) peptide compared with equivalent non-cleavable peptide control [1, 5]: as or more efficient

(K)16RVRRGACSERSMNFCG [ME69]
transfection efficiency of cleavable (RVRR) peptide compared with equivalent non-cleavable peptide control [1, 5]: as or more efficient

(K)16RVRRGACYGLPHKFCG [PCY]
transfection efficiency of cleavable (RVRR) peptide compared with equivalent non-cleavable peptide control [1, 5]: as or more efficient
